Experimental data: paper PMC2358886, “Evolution of pharmacologic specificity in the pregnane X receptor” (BMC Evolutionary Biology, 2008)
Where two headings read alike, the source gives them in different places.

Columns and labels:
[1] = target: T1, zebrafish PXR (Danio rerio, UniProt A5WYG8)
T1 sequence (A5WYG8 144-430): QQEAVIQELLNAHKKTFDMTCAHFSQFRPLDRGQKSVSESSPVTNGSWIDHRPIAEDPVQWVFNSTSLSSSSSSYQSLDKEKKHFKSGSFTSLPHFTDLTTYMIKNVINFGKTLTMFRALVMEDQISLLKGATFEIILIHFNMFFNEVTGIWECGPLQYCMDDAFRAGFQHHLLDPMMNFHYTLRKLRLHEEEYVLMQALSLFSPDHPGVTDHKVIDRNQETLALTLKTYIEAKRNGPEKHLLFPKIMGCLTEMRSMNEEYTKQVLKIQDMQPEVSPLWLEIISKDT

[2] = system: HepG2 cells
[3] = target: T2, human PXR (Homo sapiens, UniProt O75469); details: for hPXR Efficacy: human
T2 sequence (O75469 1-434): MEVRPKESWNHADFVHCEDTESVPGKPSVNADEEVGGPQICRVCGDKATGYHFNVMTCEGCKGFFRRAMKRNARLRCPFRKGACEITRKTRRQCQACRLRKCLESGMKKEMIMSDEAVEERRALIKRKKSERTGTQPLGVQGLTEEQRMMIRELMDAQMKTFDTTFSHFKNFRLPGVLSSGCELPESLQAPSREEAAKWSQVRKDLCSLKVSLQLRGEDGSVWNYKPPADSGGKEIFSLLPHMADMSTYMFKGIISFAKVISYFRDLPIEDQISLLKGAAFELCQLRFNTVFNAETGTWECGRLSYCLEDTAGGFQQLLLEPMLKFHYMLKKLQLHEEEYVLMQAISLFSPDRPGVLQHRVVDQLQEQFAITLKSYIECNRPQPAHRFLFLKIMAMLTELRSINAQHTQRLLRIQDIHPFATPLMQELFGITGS

[4] = target: T2, human PXR; test: PXR activation luciferase reporter assay, human PXR in HepG2-NTCP cells
[5] = -log(EC50), EC50 in molar units, activation of zebrafish PXR
[6] = relative to 20 μM 5α-androstan-3α-ol, assigned an efficacy of 1.0

SMILES	zfPXR Activity [1, 5]	Toxicity [2]	hPXR Activity [3]	further results
CC(C)[C@@H](C)/C=C/[C@@H](C)[C@H]1CC[C@H]2C3=CC=C4C[C@@H](O)CC[C@]4(C)[C@H]3CC[C@]12C [MI29, Provitamin D2]	None	20 µM	None	–
C[C@H](CCC(O)C(CO)CO)[C@H]1CC[C@H]2[C@@H]3[C@H](O)C[C@@H]4C[C@H](O)CC[C@]4(C)[C@H]3C[C@H](O)[C@]12C (stereo partly drawn) [BI35, 5β-Cholestan-3α,7α,12α,24,26-hexol]	None	100 µM	None	–
C[C@@H](O)[C@H]1CC[C@H]2[C@@H]3CC[C@@H]4C[C@H](O)CC[C@]4(C)[C@H]3CC[C@]12C [PR23, 5β-Pregnan-3α,20β-diol]	5.95	None	5.42	zfPXR Efficacy [1, 6]: 0.25
C=C1/C(=C\C=C2/CCC[C@]3(C)[C@@H]([C@H](C)/C=C/[C@H](C)C(C)C)CC[C@@H]23)C[C@@H](O)C[C@@H]1O [MI42, 1α-Hydroxyvitamin D2]	None	–	None	Toxicity ([2]; human, 24 hr): 50 µM
CC1=C(/C=C/C(C)=C/C=C/C(C)=C/CO)C(C)(C)CCC1 [MI31, Retinol]	–	–	–	zfPXR Activity [1]: None; Toxicity ([2]; human, 24 hr): 50 µM; hPXR Efficacy [3]: 0.20
CCC1(c2ccccc2)C(=O)NC(=O)NC1=O [MI25, Phenobarbital]	–	None	–	hPXR Efficacy [3]: 1.19
Nc1cccc(C(=O)O)c1 [MI2, 3-Aminobenzoic acid]	None	None	None	–
CC1=CC(=O)c2ccccc2C1=O [MI46, Vitamin K3]	–	–	–	zfPXR Activity [1]: None; Toxicity ([2]; human, 24 hr): 100 µM; hPXR Efficacy [3]: ~0.15
C[C@H](CCCO)[C@H]1CC[C@H]2[C@@H]3[C@H](O)C[C@H]4C[C@H](O)CC[C@]4(C)[C@H]3C[C@H](O)[C@]12C [BI29, 5α-Cholan-3α,7α,12α,-24-tetrol]	None	50 µM	None	–
C#C[C@]1(O)CC[C@H]2[C@@H]3CCc4cc(O)ccc4[C@H]3CC[C@@]21C [ES11, 1,3,5(10)-Estratrien-17α-ethinyl-3,17β-diol]	None	–	–	Toxicity ([2]; human, 24 hr): 200 µM; hPXR Efficacy [3]: 0.68
C[C@H](CCCOS(=O)(=O)O)[C@H]1CC[C@H]2[C@@H]3[C@H](O)C[C@H]4CC(=O)CC[C@]4(C)[C@H]3C[C@H](O)[C@]12C [BI32, 5α-Cholan-7α,12α-diol-3-one-24-sulfate]	None	None	None	–
C[C@]12CC[C@@H](O)C[C@H]1CC[C@@H]1[C@@H]2C(=O)C[C@@]2(C)[C@H]1CC[C@]2(O)[C@@H](O)CO [PR18, 5β-Pregnan-3α,17,20α-21-tetrol-11-one]	4.34	200 µM	4.35	zfPXR Efficacy [1, 6]: 0.25
C[C@]12CCC(=O)C[C@@H]1CC[C@@H]1[C@@H]2CC[C@]2(C)C(=O)CC[C@@H]12 [AN2, 5α-Androstan-3,17-dione]	–	None	–	hPXR Efficacy [3]: 0.87
C[C@]12CC[C@@H](O)C[C@H]1CC[C@@H]1[C@@H]2[C@@H](O)C[C@@]2(C)[C@H]1CC[C@]2(O)C(=O)CO [PR24, 5β-Pregnan-3α,11β,17,21-tetrol-20-one]	3.94	None	4.33	zfPXR Efficacy [1, 6]: 0.11
COc1c(O)ccc2c1CC[C@@H]1[C@@H]2CC[C@]2(C)C(=O)CC[C@@H]12 [ES5, 1,3,5(10)-Estratrien-3-ol-4-methoxy-17-one]	5.62	None	5.40	zfPXR Efficacy [1]: 0.19
C[C@H](CC(=O)O)[C@H]1CC[C@H]2[C@@H]3[C@H](O)C[C@@H]4C[C@H](O)CC[C@]4(C)[C@H]3C[C@H](O)[C@]12C [BI27, 23-Norcholic acid]	None	None	4.02	–
C[C@]12CC[C@H]3[C@@H](CCC4=CC(=O)CC[C@@]43C)[C@@H]1CC[C@H]2O [AN15, 4-Androsten-17α-ol-3-one]	–	None	–	hPXR Efficacy [3]: 0.9

SMILES	zfPXR Activity [1, 5]	Toxicity [2]	hPXR Activity [3]	further results
C[C@H](CCCC(CO)CO)[C@H]1CC[C@H]2[C@@H]3[C@H](O)C[C@@H]4C[C@H](O)CC[C@]4(C)[C@H]3C[C@H](O)[C@]12C [BI37, 5β-Cholestan-3α,7α,12α,26,27-pentol]	None	–	None	Toxicity ([2]; human, 24 hr): 50 µM
C[C@]12CC[C@@H]3c4ccc(O)cc4CC[C@H]3[C@@H]1C[C@@H](O)[C@@H]2O [ES3, 1,3,5(10)-Estratrien-3,16α,17β-triol]	None	–	None	Toxicity ([2]; human, 24 hr): 200 µM
C[C@]12CC[C@H]3[C@@H](CCC4=CC(=O)CC[C@@]43C)[C@@H]1CC[C@@H]2O [AN8, 4-Androsten-17β-ol-3-one]	–	None	–	hPXR Efficacy [3]: 0.22
C[C@]12CC[C@@H](O)C[C@H]1CC[C@@H]1[C@@H]2[C@@H](O)C[C@@]2(C)[C@H]1CC[C@]2(O)[C@@H](O)CO [PR17, 5β-Pregnan-3α,11β,17,20α-21-pentol]	3.95	200 µM	4.33	zfPXR Efficacy [1, 6]: 0.98
CC(C)CCC[C@@H](C)[C@H]1CC[C@H]2[C@@H]3CC=C4C[C@@H](O)CC[C@]4(C)[C@H]3CC[C@]12C [Cholesterol]	–	–	–	Human PXR EC50 (concentration class, Figure 2A) [3]: Inactive
C[C@]12CC[C@@H](O)C[C@H]1CC[C@@H]1[C@@H]2C(=O)C[C@@]2(C)[C@H]1CC[C@]2(O)C(=O)CO [PR19, 5β-Pregnan-3α,17,21-triol-11,20-dione]	4.43	None	4.28	zfPXR Efficacy [1, 6]: 0.33
CC(=O)[C@@]1(O)CC[C@H]2[C@@H]3CC=C4C[C@@H](O)CC[C@]4(C)[C@H]3CC[C@@]21C [PR11, 5-Pregnen-3β,17-diol-20-one]	None	None	4.47	EC50 [3]: 11 to 50 µM
C[C@]12CC[C@@H]3c4ccc(OS(=O)(=O)O)cc4CC[C@H]3[C@@H]1CCC2=O [ES8, 1,3,5(10)-Estratrien-17-one-3-sulfate]	None	None	5.47	–
Cn1c(=O)c2c(ncn2C)n(C)c1=O [MI6, Caffeine]	–	–	None	–
C[C@H](CC(=O)O)[C@H]1CC[C@H]2[C@@H]3CC[C@@H]4C[C@H](O)CC[C@]4(C)[C@H]3C[C@H](O)[C@]12C [BI26, 23-Nordeoxycholic acid]	None	None	4.79	–
CC(=O)[C@H]1CC[C@H]2[C@@H]3CC=C4C[C@@H](OS(=O)(=O)O)CC[C@]4(C)[C@H]3CC[C@]12C [PR26, 5-Pregnen-20-one-3β-sulfate]	4.95	None	None	zfPXR Efficacy [1, 6]: 0.23
C[C@]12CC[C@@H]3c4ccc(O)cc4CC[C@H]3[C@@H]1C[C@@H](O)C2=O [ES4, 1,3,5(10)-Estratrien-3,16α-diol-17-one]	5.70	None	5.60	zfPXR Efficacy [1]: 0.17
O=C1NC(=O)C(c2ccccc2)(c2ccccc2)N1 [MI26, Phenytoin]	–	–	–	zfPXR Activity [1]: None; Toxicity ([2]; human, 24 hr): 200 µM; hPXR Efficacy [3]: 0.52
CC(CO)CCC[C@@H](C)[C@H]1[C@H](O)C[C@H]2[C@@H]3[C@H](O)C[C@H]4C[C@@H](O)CC[C@]4(C)[C@H]3CC[C@]12C (stereo partly drawn) [BI40, 5α-Cholestan-3β,7α,16α,27-tetrol]	None	–	None	Toxicity ([2]; human, 24 hr): 100 µM
COc1c(C)c2c(c(O)c1C/C=C(\C)CCC(=O)O)C(=O)OC2 [MI21, Mycophenolic acid]	None	None	None	–
CC(C)CCC[C@@H](C)[C@H]1CC[C@H]2C3=CC=C4C[C@@H](O)CC[C@]4(C)[C@H]3CC[C@]12C [MI28, Provitamin D3]	None	10 µM	None	–
CC(=O)O[C@@H]1CC[C@@]2(C)[C@H](CC[C@@H]3[C@@H]2CC[C@]2(C)[C@@H]([C@H](C)CCC(=O)O)CC[C@@H]32)C1 [BI49, 5β-Cholanic acid-3α-acetate]	5.89	None	–	hPXR Activity ([4]; -log(EC50), EC50 in molar units, activation of human PXR): 5.92; hPXR Efficacy ([4]; relative to 10 μM rifampicin, assigned an efficacy of 1.0): 0.54
